Test results taken from ChEMBL document CHEMBL3407414, “Discovery of AZD3147: a potent, selective dual inhibitor of mTORC1 and mTORC2” (J Med Chem, 2015).

Tests used:
[1] = Lipophilicity, log D of the compound; assay type: physicochemical; settings: octanol/water
[2] = Intrinsic clearance in human hepatocytes assessed per million cells; assay type: ADME, cell-based, Hepatocyte; settings: read-out: CLH
human MDR1 [3] = assay: Apparent permeability from basolateral to apical side of MDCK2 cells expressing human MDR1 at 10 uM; assay type: ADME, cell-based, Canis lupus familiaris, MDCK-II; settings: dog, MDCK-MDR1
human MDR1 [4] = assay: Apparent permeability from apical to basolateral side of MDCK2 cells expressing human MDR1 at 10 uM; assay type: ADME, cell-based, Canis lupus familiaris, MDCK-II; settings: dog, MDCK-MDR1
[5] = Oral bioavailability in CD-1 mouse at 5 to 20 umol/kg; assay type: ADME, organism-based; settings: in vivo
[6] = Half life in Beagle dog; assay type: ADME, organism-based, Canis lupus familiaris; settings: in vivo
[7] = Volume of distribution at steady state in Beagle dog; assay type: ADME, organism-based, Canis lupus familiaris; settings: in vivo, read-out: Vdss
[8] = Clearance in CD-1 mouse at 2.5 to 10 umol/kg, iv; assay type: ADME, organism-based; settings: in vivo
[9] = Half life in CD-1 mouse; assay type: ADME, organism-based; settings: in vivo
[10] = Volume of distribution at steady state in CD-1 mouse; assay type: ADME, organism-based; settings: in vivo, read-out: Vdss
[11] = Clearance in Beagle dog at 1 to 3 umol/kg, iv; assay type: ADME, organism-based, Canis lupus familiaris; settings: in vivo
[12] = Oral bioavailability in Beagle dog at 3 to 10 umol/kg; assay type: ADME, organism-based, Canis lupus familiaris; settings: in vivo

Compound | logD [1] | further results
COc1ccc(CNC(=O)Nc2ccc(-c3nc(CS(C)(=O)=O)cc(N4CCOC[C@@H]4C)n3)cc2)cc1 | 2.8 | 
CS(=O)(=O)Cc1cc(N2CCOCC2)nc(-c2ccc(NC(=O)Nc3ccc(F)cc3)cc2)n1 | > 3.2 | 
CCNC(=O)Nc1ccc(-c2nc(CS(C)(=O)=O)cc(N3CCOC[C@@H]3C)n2)cc1 | 1.93 | 
C[C@H]1COCCN1c1cc(C2(S(C)(=O)=O)CCC2)nc(-c2ccc(NC(=O)NC3CC3)cc2)n1 | 3.3 | 
C[C@H]1COCCN1c1cc(CS(C)(=O)=O)nc(-c2ccc(NC(=O)Nc3ccc(F)cc3)cc2)n1 | 3.8 | 
CNC(=O)Nc1ccc(-c2nc(CS(C)(=O)=O)cc(N3CCOC[C@@H]3C)n2)cc1OC | 1.79 | 
C[C@H]1COCCN1c1cc(CS(C)(=O)=O)nc(-c2ccc(NC(=O)NC3CC3)cc2)n1 | 1.9 | 
C[C@H]1COCCN1c1cc(C(C)(C)S(C)(=O)=O)nc(-c2ccc(NC(=O)NC3CC3)cc2)n1 | 2.62 | hepatocyte CLint [2]: 50 µL/min/1e6 cells
CNC(=O)Nc1ccc(-c2nc(CS(=O)(=O)c3ccccc3)cc(N3CCOC[C@@H]3C)n2)cc1 | 2.65 | 
CNC(=O)Nc1ccc(-c2nc(CS(=O)(=O)c3ccncc3)cc(N3CCOC[C@@H]3C)n2)cc1 | 2.1 | 
C[C@H]1COCCN1c1cc(CS(C)(=O)=O)nc(-c2ccc(NC(=S)NC3CC3)cc2)n1 | 1.74 | 
C[C@H]1COCCN1c1cc(CS(C)(=O)=O)nc(-c2ccc(NC(=O)Nc3cnn(C)c3)cc2)n1 | 1.85 | 
C[C@H]1COCCN1c1cc(C2(S(C)(=O)=O)CCOCC2)nc(-c2ccc(NC(=O)NC3CC3)cc2)n1 | 2.8 | 
CNC(=O)Nc1ccc(-c2nc(N3CCOC[C@@H]3C)cc(C(C)(C)S(C)(=O)=O)n2)cc1 |  | hepatocyte CLint [2]: 36.3 µL/min/1e6 cells
CNC(=O)Nc1ccc(-c2nc(CS(C)(=O)=O)cc(N3CCOC[C@@H]3C)n2)cc1 | 1.54 | 
CC(C)NC(=O)Nc1ccc(-c2nc(CS(C)(=O)=O)cc(N3CCOC[C@@H]3C)n2)cc1 | 2.45 | 
CNC(=O)c1cccc(-c2ccc3c(N4CCOC[C@@H]4C)nc(N4CCOC[C@@H]4C)nc3n2)c1 [VISTUSERTIB] |  | hepatocyte CLint [2]: < 4.2 µL/min/1e6 cells
CNC(=O)Nc1ccc(-c2nc(N3CCOC[C@@H]3C)cc(C3(S(=O)(=O)c4ccncc4)CC3)n2)cc1 | 2.5 | 
C[C@H]1COCCN1c1cc(CS(C)(=O)=O)nc(-c2ccc(NC(=O)NCCN(C)C)cc2)n1 | 0.3 | 
COc1ccc(NC(=O)Nc2ccc(-c3nc(CS(C)(=O)=O)cc(N4CCOC[C@@H]4C)n3)cc2)cc1 | 2.88 | 
CNC(=O)Nc1ccc(-c2nc(CS(=O)(=O)C3CCCCC3)cc(N3CCOC[C@@H]3C)n2)cc1 | 3.6 | 
C[C@H]1COCCN1c1cc(C2(S(C)(=O)=O)CCCC2)nc(-c2ccc(NC(=O)NC3CC3)cc2)n1 | > 3.4 | 
C[C@H]1COCCN1c1cc(C2(S(=O)(=O)C3CC3)CC2)nc(-c2ccc(NC(=O)NC3CC3)cc2)n1 | 2.94 | 
C[C@H]1COCCN1c1cc(CS(C)(=O)=O)nc(-c2ccc(NC(=O)Nc3ccccc3)cc2)n1 | 3.3 | 
CNC(=O)Nc1ccc(-c2nc(CS(C)(=O)=O)cc(N3CCOC[C@@H]3C)n2)cc1C | 1.5 | 
CNC(=O)Nc1ccc(-c2nc(CS(=O)(=O)C3CC3)cc(N3CCOC[C@@H]3C)n2)cc1 | 2 | 

More lines, main results first:

logD [1] | Compound | further results
1.6 | C[C@H]1COCCN1c1cc(C2(S(=O)(=O)CCCO)CC2)nc(-c2ccc(NC(=S)NCCO)cc2)n1 | 
3.01 | C[C@H]1COCCN1c1cc(C2(S(=O)(=O)c3ccc(F)cc3)CC2)nc(-c2ccc(NC(=O)NCCO)cc2)n1 | 
2.1 | C[C@H]1COCCN1c1cc(C2(S(=O)(=O)C3CC3)CC2)nc(-c2ccc(NC(=O)NCCO)cc2)n1 | 
2.62 | C[C@H]1COCCN1c1cc(C2(S(C)(=O)=O)CC2)nc(-c2ccc(NC(=O)NC3CC3)cc2)n1 | hepatocyte CLint [2]: 37.8 µL/min/1e6 cells
1.78 | C[C@H]1COCCN1c1cc(C2(S(C)(=O)=O)CC2)nc(-c2ccc(NC(=S)NCCO)cc2)n1 | Papp B→A at 10 µM (human MDR1 [3]): 17 ×10⁻⁶ cm/s; Papp A→B at 10 µM (human MDR1 [4]): 0.07 ×10⁻⁶ cm/s
2.1 | C[C@H]1COCCN1c1cc(C2(S(=O)(=O)C3CC3)CC2)nc(-c2ccc(NC(=S)NCCO)cc2)n1 | bioavailability [5]: 61%; half-life [6]: 1.9 h; Vd [7]: 2 L/kg; clearance [8]: 8 mL/min/kg; half-life [9]: 0.9 h; Papp B→A at 10 µM (human MDR1 [3]): 43 ×10⁻⁶ cm/s; Papp A→B at 10 µM (human MDR1 [4]): 5.6 ×10⁻⁶ cm/s; Vd [10]: 2.3 L/kg; clearance [11]: 16 mL/min/kg; bioavailability [12]: 73%
2.4 | C[C@H]1COCCN1c1cc(C2(S(=O)(=O)CCCO)CC2)nc(-c2ccc(NC(=O)NC3CC3)cc2)n1 | 
1.7 | C[C@H]1COCCN1c1cc(CS(=O)(=O)CCCO)nc(-c2ccc(NC(=O)NC3CC3)cc2)n1 | 
1 | C[C@H]1COCCN1c1cc(CS(C)(=O)=O)nc(-c2ccc(NC(=O)NCCO)cc2)n1 | 
2.4 | C[C@H]1COCCN1c1cc(C2(S(C)(=O)=O)CCC2)nc(-c2ccc(NC(=O)NCCO)cc2)n1 | 
2.8 | C[C@H]1COCCN1c1cc(C2(S(=O)(=O)c3ccccc3)CC2)nc(-c2ccc(NC(=O)NCCO)cc2)n1 | Papp B→A at 10 µM (human MDR1 [3]): 24 ×10⁻⁶ cm/s; Papp A→B at 10 µM (human MDR1 [4]): 0.18 ×10⁻⁶ cm/s
2.15 | C[C@H]1COCCN1c1cc(C(C)(C)S(C)(=O)=O)nc(-c2ccc(NC(=S)NCCO)cc2)n1 | 
2.85 | C[C@H]1COCCN1c1cc(C2(S(=O)(=O)c3ccccc3)CC2)nc(-c2ccc(NC(=O)NCCCO)cc2)n1 | Papp B→A at 10 µM (human MDR1 [3]): 31 ×10⁻⁶ cm/s; Papp A→B at 10 µM (human MDR1 [4]): 0.15 ×10⁻⁶ cm/s
2.2 | C[C@H]1COCCN1c1cc(C2(S(=O)(=O)CCCO)CC2)nc(-c2ccc(NC(=S)NC3CC3)cc2)n1 | Papp B→A at 10 µM (human MDR1 [3]): 22 ×10⁻⁶ cm/s; Papp A→B at 10 µM (human MDR1 [4]): 0.18 ×10⁻⁶ cm/s
